Source: patent US11104670B2, “4-pyrimidin-5-ylmethyl-morpholine derivatives and the use thereof as medicament” (Boehringer Ingelheim International GmbH, priority 2018, dated 2021)

Columns and labels:
[1] = Metabolic stability in pooled human liver microsomes; assay type: in vitro ADME; conditions: pH 7.6, 1 μM compound, 1 mg/mL microsomal protein, 37° C., NADPH, read-out: Half-life - t½ human liver microsomes
From the text: Stability in human liver microsomes refers to the susceptibility of compounds to biotransformation in the context of selecting and/or designing drugs with favorable pharmacokinetic properties. The primary site of metabolism for many drugs is the liver. Human liver microsomes contain the cytochrome P450s (CYPs), and thus represent a model system for studying drug metabolism in vitro. Enhanced stability in human liver microsomes is associated with several advantages, including increased bioavailability and adequate half-life, which can enable lower and less frequent dosing of patients. Thus, enhanced stability in human liver microsomes is a favorable characteristic for compounds that are to be used for drugs.
The metabolic degradation of the test compound was assayed at 37° C. with pooled human liver microsomes. The final incubation volume of 60 μl per time point contains TRIS buffer pH 7.6 at room temperature (0.1 M), magnesium chloride (5 mM aqueous solution), microsomal protein (1 mg/mL for human) and the test compound at a final concentration of 1 μM. Following a short preincubation period at 37° C., the reactions were initiated by addition of betanicotinamide adenine dinucleotide phosphate, reduced form (NADPH, 1 mM), and terminated by transferring an aliquot into acetonitril after different time points. After centrifugation (10000 g, 5 min), an aliquot of the supernatant was assayed by HPLC-MS/MS as described above for the MDCK assay P-gp for the amount of parent compound. The half-life was determined by the slope of the semi-logarithmic plot of the concentration-time profile.

MDR1 (P-gp) = MDR1 (P-gp) (Homo sapiens (Human), UniProt P08183); assay: MDCK assay P-gp (MDCK-MDR1 monolayer permeability); assay type: in vitro ADME; conditions: for Papp A→B: MDCK-MDR1, apical-to-basal, pH 7.4; for efflux ratio: MDCK-MDR1, pH 7.4, Papp (b-a) divided by Papp (a-b), read-out: efflux ratio PEBA/PEAB
Procedure: The MDCK assays provide information on the potential of a compound to pass the blood brain barrier. Permeability measurements across polarized, confluent MDCK-MDR1 cell monolayers grown on permeable filter supports are used as an in vitro absorption model: apparent permeability coefficients (PE) of the compounds across the MDCK-MDR1 cell monolayers are measured (pH 7.4, 37° C.) in apical-to-basal (AB) and basal-to-apical (BA) transport direction. The AB permeability (PEAB) represents drug absorption from the blood into the brain and the BA permeability (PEBA) drug efflux from the brain back into the blood via both, passive permeability as well as active transport mechanisms mediated by efflux and uptake transporters that are expressed on the MDCK-MDR1 cells, predominantly by the overexpressed human MDR1. Identical or similar permeabilities in both transport directions indicate passive permeation (PEBA/PEAB≤1), vectorial permeability points to additional active transport mechanisms. Higher PEBA than PEAB (PEBA/PEAB>5) indicates the involvement of active efflux mediated by MDR1, which might compromise the goal to achieve sufficient brain exposure. Therefore, this assay provides valuable support for selection of compounds applicable for further in vivo testing. High permeability not limited by efflux at the blood brain barrier is a favourable characteristic for compounds that are to be used for drugs acting primarily in the CNS.
Apparent permeability coefficients (Papp) of the compounds across the MDCK-MDR1 monolayers (MDCKII cells transfected with human MDR1 cDNA expression plasmid) are measured in apical-to-basal (AB) and basal-to-apical (BA) direction.
MDCK-MDR1 cells (6×10^5 cells/cm^2) are seeded on filter inserts (Corning, Transwell, polycarbonate, 0.4 μm pore size) and cultured for 9 to 10 days. Compounds dissolved in DMSO stock solution (1-20 mM) are diluted with HTP-4 aqueous buffer (128.13 mM NaCl, 5.36 mM KCl, 1 mM MgSO4, 1.8 mM CaCl2, 4.17 mM NaHCO3, 1.19 mM Na2HPO4, 0.41 mM NaH2PO4, 15 mM HEPES, 20 mM glucose, pH 7.4) supplemented with 0.25% BSA to prepare the transport solutions (final concentration: 1 or 10 μM, final DMSO <=0.5%). The transport solution is applied to the apical or basolateral donor side for measuring A-B or B-A permeability, respectively. The receiver side contains HTP-4 buffer supplemented with 0.25% BSA. Samples are collected at the start and end of experiment from the donor and at various time intervals for up to 2 hours also from the receiver side for concentration measurement by HPLC-MS/MS (RapidFire High-throughput MS System (Agilent) coupled to QTrap 6500 (AB Sciex) or TSQ Vantage (Thermo Scientific)). Sampled receiver volumes are replaced with fresh receiver solution. Efflux ratio is calculated dividing the Papp (b-a) values by the Papp (a-b) values.

Nav1.6 channel = Nav1.6 channel (Homo sapiens (Human), UniProt Q9UQD0); assay: Nav1.6 inhibition, IonWorks Quattro electrophysiology; assay type: cell-based; conditions: for inhibition at 1 µM / inhibition at 5 µM: normalized to vehicle (0%) and maximal inhibition control (100%)
Chain of Nav1.6 channel (Q9UQD0 whole entry): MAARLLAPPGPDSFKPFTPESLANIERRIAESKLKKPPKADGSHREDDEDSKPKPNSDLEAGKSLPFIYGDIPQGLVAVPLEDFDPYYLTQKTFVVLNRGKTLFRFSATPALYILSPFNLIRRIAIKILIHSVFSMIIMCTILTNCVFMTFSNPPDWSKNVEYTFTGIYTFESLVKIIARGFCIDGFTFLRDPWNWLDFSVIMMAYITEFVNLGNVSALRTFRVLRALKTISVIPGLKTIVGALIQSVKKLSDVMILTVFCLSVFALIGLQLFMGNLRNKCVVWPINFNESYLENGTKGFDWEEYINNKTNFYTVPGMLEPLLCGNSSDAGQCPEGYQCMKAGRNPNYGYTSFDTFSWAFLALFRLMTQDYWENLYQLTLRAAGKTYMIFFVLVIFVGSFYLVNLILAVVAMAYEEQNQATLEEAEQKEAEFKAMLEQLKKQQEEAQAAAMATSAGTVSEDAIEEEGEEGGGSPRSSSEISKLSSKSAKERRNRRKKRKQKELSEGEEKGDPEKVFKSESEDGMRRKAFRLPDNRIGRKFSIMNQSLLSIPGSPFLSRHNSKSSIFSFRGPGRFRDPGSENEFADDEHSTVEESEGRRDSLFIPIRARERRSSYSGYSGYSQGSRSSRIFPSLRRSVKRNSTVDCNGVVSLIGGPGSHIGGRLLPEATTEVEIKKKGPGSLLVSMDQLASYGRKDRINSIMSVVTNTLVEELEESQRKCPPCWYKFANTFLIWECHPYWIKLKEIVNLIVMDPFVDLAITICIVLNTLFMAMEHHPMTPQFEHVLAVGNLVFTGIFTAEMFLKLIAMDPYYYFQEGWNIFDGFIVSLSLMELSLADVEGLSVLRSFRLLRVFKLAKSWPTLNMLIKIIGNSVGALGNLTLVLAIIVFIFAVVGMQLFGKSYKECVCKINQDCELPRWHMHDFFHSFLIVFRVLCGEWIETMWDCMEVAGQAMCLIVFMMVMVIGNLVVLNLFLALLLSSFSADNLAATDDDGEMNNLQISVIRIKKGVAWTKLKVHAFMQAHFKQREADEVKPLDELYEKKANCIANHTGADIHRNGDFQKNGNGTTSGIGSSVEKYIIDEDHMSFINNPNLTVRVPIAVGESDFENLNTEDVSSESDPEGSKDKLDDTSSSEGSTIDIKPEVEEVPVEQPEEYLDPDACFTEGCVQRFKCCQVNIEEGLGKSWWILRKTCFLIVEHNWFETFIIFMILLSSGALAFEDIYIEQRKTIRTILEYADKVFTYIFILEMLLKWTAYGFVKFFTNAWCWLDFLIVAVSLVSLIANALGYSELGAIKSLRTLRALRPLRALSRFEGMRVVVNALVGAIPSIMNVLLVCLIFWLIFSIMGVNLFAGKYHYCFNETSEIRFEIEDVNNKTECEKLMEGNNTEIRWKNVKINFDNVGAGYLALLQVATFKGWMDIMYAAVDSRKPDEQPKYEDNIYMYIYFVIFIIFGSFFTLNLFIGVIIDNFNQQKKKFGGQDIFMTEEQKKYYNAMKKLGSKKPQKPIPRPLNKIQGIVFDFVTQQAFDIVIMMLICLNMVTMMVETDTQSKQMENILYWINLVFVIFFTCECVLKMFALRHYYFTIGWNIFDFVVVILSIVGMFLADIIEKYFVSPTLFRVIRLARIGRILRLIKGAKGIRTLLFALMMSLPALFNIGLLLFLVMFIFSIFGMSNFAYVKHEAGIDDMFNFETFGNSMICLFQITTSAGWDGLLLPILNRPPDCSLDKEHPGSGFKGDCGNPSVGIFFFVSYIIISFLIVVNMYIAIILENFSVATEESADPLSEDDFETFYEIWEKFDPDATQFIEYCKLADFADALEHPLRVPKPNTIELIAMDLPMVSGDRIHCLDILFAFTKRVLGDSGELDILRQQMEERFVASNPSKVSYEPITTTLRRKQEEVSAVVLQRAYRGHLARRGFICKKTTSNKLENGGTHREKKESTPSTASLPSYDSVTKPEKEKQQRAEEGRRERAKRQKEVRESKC
Procedure: Ion Works Quattro electrophysiological platform
The compounds were prepared in DMSO at 300× the final assay concentrations of 1 and 5 μM.
The 300× DMSO stock solutions were transferred into assay plates where 2 μl per well of each 300× stock solution were placed. All assay plates were stored at −80° C. until the day of assay.
On the day of the assay, the appropriate assay plate was thawed at room temperature, centrifuged, and 198 μl of external recording solution was added and mixed thoroughly. This provided a 1:100 dilution. A further 1:3 dilution occurred upon addition to the cells in the IonWorks Quattro electrophysiological platform, giving a 1:300 dilution in total.
On each assay plate, at least 8 wells were reserved for vehicle control (0.3% DMSO) and at least 8 wells for each positive control specific to the cell line tested. The positive controls were tested at a maximal blocking and an approximate IC50 concentration. As positive control Lidocaine at concentrations of 30 and 1000 μM was used.
Amphotericin B was used to obtain electrical access to the cell interior at a final concentration of 200 μg/ml in internal recording solution.
State-dependent inhibition: Sodium channels when held at depolarized potential or long test pulse, the channels open and inactivate and then stay inactivated until the membrane potential is stepped back to hyperpolarized potentials, when the inactivated channels recover from inactivation into closed state.
Cells were held at −120 mV. In order to completely inactivate the sodium channels (pulse 1), the cells were pulsed to +0 mV for 2500 ms and stepped back to −120 mV for 10 ms (to completely recover from inactivation, however channels that had drugs bound to them will not recover from inactivation) before stepping to +0 mV for 20 ms (pulse 2).
Both the positive and vehicle control data associated with each cell line assayed are shown below as an example. The mean is shown for each positive and negative control as solid symbol with the total number of individual well replicates given next to the solid symbol. In addition, the individual data of each well are shown on the graph as open symbols so that the variation about the mean value can be readily assessed.
In FIG. 2, a Post/Pre value of 1.0 corresponds to 0% inhibition, a Post/Pre value of 0.0 corresponds to 100% inhibition.
Tables 3 and 4 show the normalized percentage inhibition of Nav1.6 channel. […] (see also the figure Assay Control Results above).

SMILES: CNC(=O)[C@@H]1CN(Cc2cnc(Oc3ccccc3Cl)nc2)CCO1 [Example 26]
- half-life at 1 µM [1]: > 130 min
- Papp A→B (MDR1 (P-gp)): 95 ×10⁻⁶ cm/s
- efflux ratio (MDR1 (P-gp)): 0.6
- inhibition at 1 µM (Nav1.6 channel): 12.8%
- inhibition at 5 µM (Nav1.6 channel): 5.7%

SMILES: CNC(=O)[C@@H]1CN(Cc2cnc(Oc3ccc(F)cc3C)nc2)CCO1 [Example 21]
- half-life at 1 µM [1]: > 130 min
- Papp A→B (MDR1 (P-gp)): 56 ×10⁻⁶ cm/s
- efflux ratio (MDR1 (P-gp)): 1
- inhibition at 1 µM (Nav1.6 channel): 1.3%
- inhibition at 5 µM (Nav1.6 channel): 3.6%

SMILES: CNC(=O)[C@@H]1CN(Cc2cnc(Oc3ccc(F)cc3)nc2)CCO1 [Example 32]
- half-life at 1 µM [1]: > 130 min
- Papp A→B (MDR1 (P-gp)): 82 ×10⁻⁶ cm/s
- efflux ratio (MDR1 (P-gp)): 0.5
- inhibition at 1 µM (Nav1.6 channel): -7.7%
- inhibition at 5 µM (Nav1.6 channel): -13.5%

SMILES: CNC(=O)[C@@H]1CN(Cc2cnc(Oc3ccc(Cl)cc3F)nc2)CCO1 [Example 24]
- half-life at 1 µM [1]: > 130 min
- Papp A→B (MDR1 (P-gp)): 56 ×10⁻⁶ cm/s
- efflux ratio (MDR1 (P-gp)): 0.8
- inhibition at 1 µM (Nav1.6 channel): 5.8%
- inhibition at 5 µM (Nav1.6 channel): -3.7%

SMILES: CNC(=O)[C@@H]1CN(Cc2cnc(Oc3ccc(C)cc3F)nc2)CCO1 [Example 20]
- half-life at 1 µM [1]: > 130 min
- Papp A→B (MDR1 (P-gp)): 80 ×10⁻⁶ cm/s
- efflux ratio (MDR1 (P-gp)): 0.7
- inhibition at 1 µM (Nav1.6 channel): -8.9%
- inhibition at 5 µM (Nav1.6 channel): -10.1%

SMILES: CNC(=O)[C@@H]1CN(Cc2cnc(Oc3ccc(C)cc3C)nc2)CCO1 [Example 22]
- half-life at 1 µM [1]: > 130 min
- Papp A→B (MDR1 (P-gp)): 57 ×10⁻⁶ cm/s
- efflux ratio (MDR1 (P-gp)): 0.7
- inhibition at 1 µM (Nav1.6 channel): 3.8%
- inhibition at 5 µM (Nav1.6 channel): -10.4%

SMILES: CNC(=O)[C@@H]1CN(Cc2cnc(Oc3ccc(F)cc3F)nc2)CCO1 [Example 23]
- half-life at 1 µM [1]: > 130 min
- Papp A→B (MDR1 (P-gp)): 65 ×10⁻⁶ cm/s
- efflux ratio (MDR1 (P-gp)): 0.9
- inhibition at 1 µM (Nav1.6 channel): 0.1%
- inhibition at 5 µM (Nav1.6 channel): 2.9%

SMILES: CNC(=O)[C@@H]1CN(Cc2cnc(Oc3ccc(Cl)cc3)nc2)CCO1 [Example 25]
- half-life at 1 µM [1]: > 130 min
- Papp A→B (MDR1 (P-gp)): 88 ×10⁻⁶ cm/s
- efflux ratio (MDR1 (P-gp)): 0.5
- inhibition at 1 µM (Nav1.6 channel): -11.8%
- inhibition at 5 µM (Nav1.6 channel): -18.8%
- inhibition of the Nav 1.6 channel (in words) (Nav1.6 channel; at 5 μM): not showing any significant inhibition

SMILES: CNC(=O)[C@@H]1CN(Cc2cnc(Oc3ccccc3F)nc2)CCO1 [Example 27]
- half-life at 1 µM [1]: > 130 min
- Papp A→B (MDR1 (P-gp)): 54 ×10⁻⁶ cm/s
- efflux ratio (MDR1 (P-gp)): 0.7
- inhibition at 1 µM (Nav1.6 channel): -3.1%
- inhibition at 5 µM (Nav1.6 channel): 4.3%

SMILES: CNC(=O)[C@@H]1CN(Cc2cnc(Oc3ccc(C)cc3)nc2)CCO1 [Example 28]
- half-life at 1 µM [1]: > 130 min
- Papp A→B (MDR1 (P-gp)): 83 ×10⁻⁶ cm/s
- efflux ratio (MDR1 (P-gp)): 0.5
- inhibition at 1 µM (Nav1.6 channel): -6.2%
- inhibition at 5 µM (Nav1.6 channel): -14.6%
